From paper PMC12525784, “Novel Azaborine-Based Inhibitors of Histone Deacetylases (HDACs)” (Molecules, 2025) come the findings set out here.

SMILES strings stand for the structures.

Common to all, as to type: biochemical
The target of assay [1] is T1, HDAC8 (Homo sapiens, UniProt Q9BY41).
T1 construct: made in house
T1 sequence (Q9BY41 1-377): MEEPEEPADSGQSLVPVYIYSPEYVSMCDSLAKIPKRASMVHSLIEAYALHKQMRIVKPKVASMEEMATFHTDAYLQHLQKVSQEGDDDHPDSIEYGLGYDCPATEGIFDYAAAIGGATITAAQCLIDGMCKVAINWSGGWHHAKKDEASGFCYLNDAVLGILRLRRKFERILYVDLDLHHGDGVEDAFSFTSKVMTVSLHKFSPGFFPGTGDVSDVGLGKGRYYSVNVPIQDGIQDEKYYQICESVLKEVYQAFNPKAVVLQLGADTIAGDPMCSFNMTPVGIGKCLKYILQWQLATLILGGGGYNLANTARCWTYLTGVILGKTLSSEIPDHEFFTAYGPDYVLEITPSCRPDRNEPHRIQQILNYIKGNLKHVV
The assay is described as follows: HDAC8 enzymatic activity assay (dose-response, Boc-Lys(Tfa)-AMC). Conditions: 10 nM HDAC8, 20 µM Boc-Lys(Tfa)-AMC; triplicate, mean ± SD. Here is the method: (§1) Enzymatic activity assays for compound screening and dose–response analysis were performed as previously described. […] For dose–response curves, serial inhibitor dilutions were incubated with 40 nM HDAC1 (BPS Bioscience, San Diego, CA, USA), 1 nM HDAC4, or 10 nM HDAC8. […] All IC50 determinations were performed in triplicate, and the results are expressed as mean values ± standard deviation (SD). HDAC4 and HDAC8 were produced according to previously reported protocols. HDAC1 was purchased from BPS Bioscience (San Diego, CA, USA). Boc-Lys(Tfa)-AMC and trypsin were purchased from Bachem (Bubendorf, Switzerland) and AppliChem (Darmstadt, Germany), respectively.

For assay [2], the target named is T2, HDAC4 (Homo sapiens, UniProt P56524).
T2 construct: made in house
As to the kind of experiment: HDAC4 enzymatic activity assay (dose-response, Boc-Lys(Tfa)-AMC). To be noted: 1 nM HDAC4, 20 µM Boc-Lys(Tfa)-AMC; triplicate, mean ± SD. Here is the method: as §1

Assay [3] deals with T3, HDAC1 (Homo sapiens, UniProt Q13547).
T3 construct: purchased BPS Bioscience
As to the kind of experiment: HDAC1 enzymatic activity assay (dose-response, Boc-Lys(Ac)-AMC). Conditions: 40 nM HDAC1, 50 µM Boc-Lys(Ac)-AMC; triplicate, mean ± SD. The procedure:
Enzymatic activity assays for compound screening and dose–response analysis were performed as previously described. In brief, compounds were screened at 35 µM using 1 nM HDAC4 and 10 nM HDAC8, respectively. For dose–response curves, serial inhibitor dilutions were incubated with 40 nM HDAC1 (BPS Bioscience, San Diego, CA, USA), 1 nM HDAC4, or 10 nM HDAC8. Reactions were initiated with 20 µM Boc-Lys(Tfa)-AMC (HDAC4/8) or 50 µM Boc-Lys(Ac)-AMC (HDAC1) and terminated with 0.4 mg/mL trypsin ([…]) and 1.7 µM SATFMK (HDAC4/8) or 4.2 µM SAHA (HDAC1). All IC50 determinations were performed in triplicate, and the results are expressed as mean values ± standard deviation (SD). HDAC4 and HDAC8 were produced according to previously reported protocols. HDAC1 was purchased from BPS Bioscience (San Diego, CA, USA). Boc-Lys(Tfa)-AMC and trypsin were purchased from Bachem (Bubendorf, Switzerland) and AppliChem (Darmstadt, Germany), respectively.

T3 sequence (Q13547 whole entry): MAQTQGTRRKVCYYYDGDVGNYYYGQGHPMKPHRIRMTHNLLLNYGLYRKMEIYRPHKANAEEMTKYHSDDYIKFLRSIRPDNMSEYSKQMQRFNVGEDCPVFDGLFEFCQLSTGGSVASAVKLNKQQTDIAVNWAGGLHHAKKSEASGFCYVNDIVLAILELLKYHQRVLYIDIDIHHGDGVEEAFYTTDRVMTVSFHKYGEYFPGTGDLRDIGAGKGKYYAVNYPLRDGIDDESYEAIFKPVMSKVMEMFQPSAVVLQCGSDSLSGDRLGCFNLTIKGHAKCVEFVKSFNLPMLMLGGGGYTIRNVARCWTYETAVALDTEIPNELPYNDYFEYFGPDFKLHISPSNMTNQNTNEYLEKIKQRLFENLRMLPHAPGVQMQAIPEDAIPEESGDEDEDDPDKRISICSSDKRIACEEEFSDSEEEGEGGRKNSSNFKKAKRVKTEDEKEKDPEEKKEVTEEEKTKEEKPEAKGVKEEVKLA
T2 sequence (P56524 whole entry): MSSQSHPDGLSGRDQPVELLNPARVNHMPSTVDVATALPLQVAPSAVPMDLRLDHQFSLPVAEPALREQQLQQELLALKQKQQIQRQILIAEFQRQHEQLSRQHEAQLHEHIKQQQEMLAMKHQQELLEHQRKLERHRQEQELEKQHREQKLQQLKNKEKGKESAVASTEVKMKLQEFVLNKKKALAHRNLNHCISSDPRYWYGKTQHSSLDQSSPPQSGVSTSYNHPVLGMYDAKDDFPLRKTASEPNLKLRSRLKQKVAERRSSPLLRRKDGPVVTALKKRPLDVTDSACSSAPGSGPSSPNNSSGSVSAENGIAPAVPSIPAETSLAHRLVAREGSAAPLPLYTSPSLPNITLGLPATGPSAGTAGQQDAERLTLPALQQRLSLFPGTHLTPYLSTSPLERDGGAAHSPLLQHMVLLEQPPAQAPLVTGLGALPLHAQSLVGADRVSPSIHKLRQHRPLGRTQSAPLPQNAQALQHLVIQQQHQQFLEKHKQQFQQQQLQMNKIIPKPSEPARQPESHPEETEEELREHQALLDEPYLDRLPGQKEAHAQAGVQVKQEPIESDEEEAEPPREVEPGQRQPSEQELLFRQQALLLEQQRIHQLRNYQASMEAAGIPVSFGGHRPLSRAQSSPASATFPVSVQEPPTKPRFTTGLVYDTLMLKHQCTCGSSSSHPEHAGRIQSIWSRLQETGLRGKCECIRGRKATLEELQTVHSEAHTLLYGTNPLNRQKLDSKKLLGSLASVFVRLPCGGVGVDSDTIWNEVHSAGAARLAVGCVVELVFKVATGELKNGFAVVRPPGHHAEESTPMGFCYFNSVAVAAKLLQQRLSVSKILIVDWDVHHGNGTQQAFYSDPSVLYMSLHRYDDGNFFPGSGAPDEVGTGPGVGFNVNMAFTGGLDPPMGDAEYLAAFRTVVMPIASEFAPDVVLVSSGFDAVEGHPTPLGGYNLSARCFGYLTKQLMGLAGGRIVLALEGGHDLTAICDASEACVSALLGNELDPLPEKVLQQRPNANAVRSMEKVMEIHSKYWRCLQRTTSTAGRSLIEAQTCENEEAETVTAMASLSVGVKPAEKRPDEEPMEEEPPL

Usually IC50 stands for the point on the concentration scale where inhibition reaches its midpoint. Higher therefore signals a need for much substance. On to `Nc1ccccc1NC(=O)CCCCc1cn(CB2C=Cc3ccccc3N2)nn1` [Compound 8], for which the IC50 in assay [1], in assay [2] and in assay [3] was > 35 µM in each case.
As for `Nc1ccccc1NC(=O)c1cn(CB2C=Cc3ccccc3N2)nn1` [Compound 9], the IC50 in assay [1] is 20 ± 3 µM; in assay [2], 16.8 ± 1.6 µM; in assay [3] it was > 35 µM.
Take `Nc1ccccc1NC(=O)CCCc1cn(CB2C=Cc3ccccc3N2)nn1` [Compound 10]: the IC50 was 19 ± 5 µM in assay [1], 8.08 ± 1.59 µM in assay [2] and > 35 µM in assay [3].
Regarding `O=C(CCc1cn(CB2C=Cc3ccccc3N2)nn1)NO` [Compound 11], the 50% inhibitory concentration (IC50) in assay [1], in assay [2] and in assay [3] was > 35 µM each time.
Regarding `O=C(CCCCc1cn(CB2C=Cc3ccccc3N2)nn1)NO` [Compound 12], the figures for the IC50 in assay [1], in assay [2] and in assay [3] were 6.2 ± 3.4 µM, 13.8 ± 4.3 µM and > 35 µM, respectively.
On the same counts, the results for `O=C(CCCc1cn(CB2C=Cc3ccccc3N2)nn1)NO` [Compound 13] are 3.3 ± 1.7 µM, 23.1 ± 4.9 µM and > 35 µM.
The like results for `Nc1cc(F)ccc1NC(=O)CCc1cn(CB2C=Cc3ccccc3N2)nn1` [Compound 14] were, in that order, > 35 µM, > 35 µM and > 35 µM.
On the same counts, the results for `Nc1cc(F)ccc1NC(=O)CCCCc1cn(CB2C=Cc3ccccc3N2)nn1` [Compound 15] are > 35 µM, > 35 µM and > 35 µM.
As for `O=C(CCCCCCC(=O)OCB1C=Cc2ccccc2N1)NO` [Compound 16d], the IC50 in assay [1] was > 35 µM; in assay [2], 14.7 ± 1.7 µM; in assay [3], > 35 µM.
As to `Nc1ccccc1NC(=O)CCCCCCC(=O)OCB1C=Cc2ccccc2N1` [Compound 17], the half-maximal inhibitory concentration (IC50) in assay [1] amounted to 15 ± 3 µM; in assay [2], 16.5 ± 1 µM; in assay [3] it was 8.2 ± 2.5 µM.
As for `O=C(/C=C/c1ccc(C(=O)NO)cc1)OCB1C=Cc2ccccc2N1` [Compound 18], the figures for the IC50 in assay [1], in assay [2] and in assay [3] were 0.52 ± 0.11 µM, > 35 µM and 8.2 ± 1.8 µM, respectively.
On to `O=C(CCCC(=O)OCB1C=Cc2ccccc2N1)NO` [Compound 19], for which the IC50 in assay [1], in assay [2] and in assay [3] was > 35 µM throughout.
For `Nc1cc(F)ccc1NC(=O)c1cccc(C(=O)OCB2C=Cc3ccccc3N2)c1` [Compound 20], the IC50 in assay [1], in assay [2] and in assay [3] was > 35 µM in each case.
Regarding `Nc1ccccc1NC(=O)c1cccc(C(=O)OCB2C=Cc3ccccc3N2)c1` [Compound 21], the IC50 in assay [1], in assay [2] and in assay [3] was > 35 µM throughout.
`Nc1ccccc1NC(=O)CCSCCC(=O)OCB1C=Cc2ccccc2N1` [Compound 22]: the IC50 in assay [1], in assay [2] and in assay [3] was > 35 µM each time.
As to `O=C(NO)c1cccc(C(=O)OCB2C=Cc3ccccc3N2)c1` [Compound 23], the results for the IC50 in assay [1], in assay [2] and in assay [3] were 0.44 ± 0.07 µM, 7.3 ± 1.7 µM and 1.88 ± 0.11 µM, respectively.
For the compound `O=C(CCCCCCNCB1C=Cc2ccccc2N1)NO` [Compound 24], the results for the IC50 in assay [1], in assay [2] and in assay [3] were > 35 µM, > 35 µM and 9.3 ± 2.3 µM, respectively.
On to `O=C(NO)c1cccc(NCB2C=Cc3ccccc3N2)c1` [Compound 25], for which the results for the 50% inhibitory concentration (IC50) in assay [1], in assay [2] and in assay [3] were > 35 µM, 17 ± 3 µM and > 35 µM, respectively.
Take `Nc1cc(F)ccc1NC(=O)c1ccc(CNCB2C=Cc3ccccc3N2)cc1` [Compound 26]: the IC50 in assay [1], in assay [2] and in assay [3] was > 35 µM in each case.
With `O=C(NO)c1cccc(CNCB2C=Cc3ccccc3N2)c1` [Compound 27], the IC50 in assay [1], in assay [2] and in assay [3] was > 35 µM throughout.
Turning to `O=C(NO)c1cccc(B2Nc3ccccc3N2)c1` [Compound 30], the IC50 in assay [1] was determined as 0.2 ± 0.02 µM; in assay [2], 1.35 ± 0.18 µM; in assay [3], 0.975 ± 0.394 µM.
The like results for `Nc1ccccc1NC(=O)c1cccc(B2Nc3ccccc3N2)c1` [Compound 31] were, in that order, > 35 µM, > 35 µM and > 35 µM.
The like results for `Nc1cc(F)ccc1NC(=O)c1cccc(B2Nc3ccccc3N2)c1` [Compound 32] were, in that order, > 35 µM, > 35 µM and > 35 µM.
For the compound `O=C(NO)c1ccc(B2Nc3ccccc3N2)cc1` [Compound 35], the half-maximal inhibitory concentration (IC50) in assay [1], in assay [2] and in assay [3] was > 35 µM in each case.
